{"source": "patent US20180256560A1", "about": "(priority 2015, published 2018)", "key": {"[1]": {"assay": "not given", "remark": "listed apart in the source"}, "[2]": {"details": "20 mg/ml nicotine in the formulation; FIGS. 4.4-4.6", "experimental": "Test solutions were prepared from ethanol, de-ionized water, a 20% stock solution of glycerol in de-ionized water, a 5 M NaCl solution and nicotine solutions of 40 mg/ml in either ethanol or de-ionized water. Solutions were analysed for droplet size distributions generated by an eFlow© rapid nebulizer device (PARI GmbH) which was placed at 90° to, and 15 cm from, the laser light path of a Malvern Spraytec particle sizer. A Malvern Spraytec Real Time Droplet Sizer and an Alberta Idealized Throat coupled to an Andersen Cascade Impactor (AIT/ACI) were also used to determine droplet size.\nThe surface to volume ratio of the droplets was calculated using the following formulae:"}, "[3]": {"assay": "not given", "remark": "listed apart in the source"}, "[4]": {"details": "cited from earlier work"}}, "note": "Where “and” joins values, the source holds several entries; their conditions need not be identical. Equal entries are not always repeated. Where two headings read alike, the source gives them in different places."}
{"smiles": "CN1CCC[C@H]1c1cccnc1", "note": "[nicotine, (S)-3-(1-Methyl-2-pyrrolidinyl)pyridine]", "values": [{"measurement": "reduction of nicotine in gas form at equilibrium by ethanol", "setting": "20 mg/ml nicotine, 1% ethanol, FIG. 2.3", "result": 90, "unit": "%"}, {"measurement": "effect of pH on amount of nicotine in gas form at equilibrium", "setting": "decreasing pH from 10 to 3, FIG. 2.2", "result": "dramatically decreases"}, {"measurement": "effect of metal salt on amount of gaseous nicotine at equilibrium", "setting": "higher salt concentrations", "result": "larger amounts of gaseous nicotine"}, {"measurement": "enhancement of gaseous release of nicotine from the solution by salt", "setting": "[1]; 1M NaCl", "result": "two-fold"}, {"measurement": "reduction of nicotine gas release by ethanol (dynamic)", "setting": "[1]; 10% ethanol, FIG. 3.4", "result": 90, "unit": "%"}, {"measurement": "effect of pH on nicotine gas release (dynamic)", "setting": "[1]; decreasing pH from 8 to 3, FIG. 3.2", "result": "dramatically decreases"}, {"measurement": "effect of NaCl on nicotine release in gas form (dynamic)", "setting": "[1]; increasing NaCl from 0 to 1M, FIG. 3.3", "result": "dramatically increases"}, {"measurement": "effect of adding nicotine on droplet size", "setting": "[2]", "result": "no major shift in droplet size"}, {"measurement": "nicotine molecules uncharged", "setting": "[3]; pH 7", "result": "approximately 10%"}, {"measurement": "nicotine molecules uncharged", "setting": "[3]; pH 10", "result": "> 99% and ~100%"}, {"measurement": "nicotine in 5 litres of arterial blood", "setting": "[4]; 25% of the average 1 mg of nicotine delivered by a cigarette", "result": "30 to 60", "unit": "ng/mL"}, {"measurement": "time to peak nicotine concentration in arterial blood", "setting": "[4]; smokers, typical", "result": "3 to 5", "unit": "min"}]}
